In patent publication US20200071667A1, “COMPOSITION COMPRISING GLYCYRRHIZIN FOR INDUCING DIFFERENTIATION INTO MYELOID-DERIVED SUPPRESSOR CELL FROM MYELOID CELL” (Konkuk University Glocal Industry-Academic Collabo, priority 2018, published 2020):

Assays:
myeloid cells = test: Differentiation of LPS-treated mouse myeloid cells treated with glycyrrhizin (in vitro), flow cytometric analysis; assay type: cell-based, C57BL/6 mice; settings: LPS 1 ng/ml, GR 100 μg/ml, incubation 3 days
Procedure: To verify the in vivo experimental results of Example <2-1>, flow cytometric analysis was used to confirm whether differentiation into CD11b+Gr1 myeloid cells or MDSCs from myeloid cells was induced when myeloid cells of mice were treated with glycyrrhizin (GR).
Specifically, myeloid cells were obtained by washing the femoral region of each of 8-week-old male C57BL/6 male mice without specific pathogens with a Roswell Park Memorial Institute (RPMI) 1640 medium in a sterile state using a syringe with a 27-gauge needle. Red blood cells (RBCs) of the collected bone marrow were lysed with an erythrolysis solution, and then the remaining cells were treated with 10% fetal bovine serum, 40 ng/ml of IL-6, and 40 ng/ml of granulocyte-macrophage colony stimulating factor at 37° C. Thereafter, only 1 ng/ml of LPS was treated (LPS group) or 100 μg/ml of GR was additionally treated (LPS+GR group) after LPS treatment. The control was treated with 0.1 ml of PBS. After incubation for 3 days, the same flow cytometric analysis as in Example <2-1> was performed to measure the absolute number of myeloid cells of each group, and then all the obtained data was analyzed using FlowJo software (Tree Star Inc., Ashland, Oreg., USA) to determine the ratio of MDSCs to CD11b+Gr1 myeloid cells.

[1] = tested on: tumor necrosis factor (TNF)-α; test: ELISA of TNF-α in BALF and blood of mice with LPS-induced sepsis; assay type: in vivo, C57BL/6 mice; settings: 12 hours after final injection
Procedure: (§1) Specifically, 0.1 ml of phosphate buffered saline (PBS; Gibco, Grand Island, N.Y., USA) was injected intraperitoneally (i.p.) into mice of the control, and 12 hours after the injection, 0.1 ml of PBS was intraperitoneally injected again into each mouse. 1 μg of LPS (Escherichia coli serotype 0111:B4, Sigma-Aldrich, St. Louis, Mo., USA) dissolved in 0.1 ml of PBS was injected intraperitoneally (i.p.) into mice of the LPS group to induce sepsis, and 12 hours after sepsis induction, 0.1 ml of PBS was intraperitoneally injected into each mouse. […]
(§2) Specifically, for the analysis of bronchoalveolar lavage fluid and blood, 12 hours after the final injection into mice of each experimental group of Example 1, 1 μg/g of Zoletil®50 (a combined preparation of tiletamine and zolazepam, Virbac Laboratories, Carros, France) as an anesthetic and 0.1 U/g of heparin sodium (Green Cross Co., Yongin, Korea) were intraperitoneally injected into each mouse to minimize the effect of aches or pains on immunity. […] The levels of tumor necrosis factor (TNF)-α, IL-6, and IL-1β in BALF and blood were measured using a mouse enzyme-linked ELISA kit (R&D Systems Inc., Minneapolis, Minn., USA) according to the manufacturer's instructions. Samples collected from each group were analyzed in triplicate.

IL-6 = test: ELISA of IL-6 in BALF and blood of mice with LPS-induced sepsis; assay type: in vivo, C57BL/6 mice; settings: 12 hours after final injection
Procedure: as §1, §2

IL-1β = test: ELISA of IL-1β in BALF and blood of mice with LPS-induced sepsis; assay type: in vivo, C57BL/6 mice; settings: 12 hours after final injection
Procedure: as §1, §2

[2] = tested on: Toll-like receptor 4 (TLR4); test: Immunohistochemical staining for TLR4 in heart or lung tissues; assay type: in vivo, C57BL/6 mice; settings: heart and lungs
Procedure: (§3) Specifically, 0.1 ml of phosphate buffered saline (PBS; Gibco, Grand Island, N.Y., USA) was injected intraperitoneally (i.p.) into mice of the control, and 12 hours after the injection, 0.1 ml of PBS was intraperitoneally injected again into each mouse. 1 μg of LPS (Escherichia coli serotype 0111:B4, Sigma-Aldrich, St. Louis, Mo., USA) dissolved in 0.1 ml of PBS was injected intraperitoneally (i.p.) into mice of the LPS group to induce sepsis, and 12 hours after sepsis induction, 0.1 ml of PBS was intraperitoneally injected into each mouse. 1 μg of LPS and 100 mg/kg of ammonium glycyrrhizinate (GR; Abcam Inc., Cambridge, UK) dissolved in 0.1 ml of PBS were injected intraperitoneally (i.p.) into mice of the LPS+GR group, and 12 hours after the injection, 100 mg/kg of ammonium glycyrrhizinate dissolved in 0.1 ml of PBS was intraperitoneally injected into each mouse.
(§4) It was determined whether TLR4 expression levels were inhibited when mice with sepsis induced by LPS were treated with glycyrrhizin. The expression level of Toll-like receptor 4 (TLR4) was confirmed using immunohistochemistry and western blot analysis.
Specifically, for immunohistochemical staining for TLR4, the heart or lung tissues of mice of each experimental group of Example 1 were cut to 4 μm after deparaffinization treatment. […] TLR4 intensity was quantified using NIH Image J software.

[3] = tested on: Toll-like receptor 4 (TLR4); test: Western blotting of TLR4 in heart or lung tissues; assay type: in vivo, C57BL/6 mice
Procedure: as §3, §4
Western blotting was performed to confirm the intensity of TLR4 staining. […] Band intensity was quantified using Luminescent Image Analyzer LAS-3000 (FUJIFILM Medical Systems, Hanover Park, Ill., USA). The density of each band was analyzed using NIH Image J software.

[4] = parenthesised line under cell number

lipopolysaccharide [LPS] was tested. Which “CD11b + Gr1 myeloid cells (number of cells)” value (myeloid cells) did it give?
The value was 16,500 ± 400.

And the “MDSCs (number of cells)” value (myeloid cells)?
The value was 5,200 ± 300.

What about the “MDSCs/CD11b + Gr1 myeloid cells × 100 (%)” value (myeloid cells) of the same substance?
The value was 32.45 ± 2.69%.

What about the Total cell count (myeloid cells) of the same substance?
The Total cell count was 47,300 ± 1,200.

And the “CD11b + Gr1 myeloid cells (value in parentheses)” value (myeloid cells; [4])?
Its value is “(34.61 ± 4.51)”.

And the “MDSCs (value in parentheses)” value (myeloid cells; [4])?
Its value is “(11.23 ± 1.25)”.

And the TNF-α ([1]; BALF)?
Its TNF-α is 284.20 ± 56.96 pg/µL.

What about the TNF-α ([1]; Blood) of the same substance?
Its TNF-α is 98.78 ± 9.17 pg/µL.

And the IL-6 (IL-6; BALF)?
The IL-6 was 650.26 ± 11.02 pg/µL.

And the IL-6 (IL-6; Blood)?
The IL-6 was 172.63 ± 14.22 pg/µL.

And the IL-1β (IL-1β; BALF)?
The IL-1β was 164.82 ± 17.81 pg/µL.

What about the IL-1β (IL-1β; Blood) of the same substance?
The IL-1β was 126.28 ± 7.61 pg/µL.

What about the “expression level of TLR4 by immunohistochemistry” value [2] of the same substance?
Its value is “significantly higher in both the heart and the lungs compared to the control”.

And the “TLR4 intensity by western blotting” value ([3]; heart)?
The value was 403.9±29.3.

And the “TLR4 intensity by western blotting” value ([3]; lungs)?
The value was 350.7±21.3.
